According to patent publication US20040254162A1, “Oxazolidinone derivatives as antimicrobials” (priority 2001, published 2004):
≈ marks a conversion by molar mass, not a printed value. Where “and” joins values, the source holds several entries; their conditions need not be identical. Equal entries are not always repeated.

Legend:
MRSA 562 [1] = test: In vivo activity against MRSA 562 (ED50); set-up: species or system Methicillin Resistant Staphylococcus aureus; settings: PO; MRSA 562 infection
VRE 6A (Ent. faecium 6A) = test: MIC, agar incorporation method; settings: agar incorporation
MRSA 15187 = test: MIC, agar incorporation method; settings: agar incorporation
Ent. faecalis ATCC 29212 = test: MIC, agar incorporation method; settings: agar incorporation
MRSA 562 [2] = test: MIC, agar incorporation method; settings: for MIC: MRSA 562, Table 5; for MIC MRSA 562: agar incorporation, Table 1
MRSA 33 = test: MIC, agar incorporation method; settings: agar incorporation
Strep. pyog. ATCC 19615 = test: MIC, agar incorporation method; settings: agar incorporation
S. aureus ATCC 25923 = test: MIC, agar incorporation method; settings: agar incorporation
Strep. pne. ATCC 6303 = test: MIC, agar incorporation method; settings: agar incorporation
S. pneum AB 34 = test: MIC, agar incorporation method; settings: agar incorporation
E. faecalis = test: Summary of in vitro activity (MIC); settings: E. faecalis
S. aureus = test: Summary of in vitro activity (MIC); settings: S. aureus
G +ve bacteria = test: Summary of in vitro activity (MIC)
S. pneumoniae = test: Summary of in vitro activity (MIC); settings: S. pneumoniae

## CC(=O)NC[C@H]1CN(c2ccc(N3CC4C(C3)C4N(C)C(=O)Cc3cccs3)c(F)c2)C(=O)O1 (stereo partly drawn) [Compound No. 71, (S)-N-[[3-[3-Fluoro[4-[3-(1α,5α,6α)-6-[N-(2-thiopheneacetyl)-N-methyl]amino]-3-azabicyclo-[3.1.0]hexane]phenyl]-2-oxo-5-oxazolidinyl]methyl]acetamide]
MRSA 562 [1]
  ED50 (mg/kg body weight) PO: >25 mg/kg body weight
VRE 6A (Ent. faecium 6A)
  MIC VRE 6A: 8 µg/mL and 4 µg/mL
MRSA 15187
  MIC MRSA 15187: 8 µg/mL and 4 µg/mL
Ent. faecalis ATCC 29212
  MIC E. faecalis 29212: 8 µg/mL and 4 µg/mL
MRSA 562 [2]
  MIC: 4 µg/mL (≈ 8.22 µM)
MRSA 33
  MIC MRSA 33: 8 µg/mL and 4 µg/mL
Strep. pyog. ATCC 19615
  MIC S. pyogenes 19615: 4 µg/mL and 2 µg/mL
S. aureus ATCC 25923
  MIC S. aureus 25923: 8 µg/mL and 4 µg/mL
Strep. pne. ATCC 6303
  MIC S. pneum 6303: 4 µg/mL (≈ 8.22 µM)
S. pneum AB 34
  MIC S. pneum AB 34: 2 µg/mL and 4 µg/mL

## CC(=O)NC[C@H]1CN(c2ccc(N3CCN(Cc4ccc(NC=O)o4)CC3)c(F)c2)C(=O)O1 [Compound No. 67]
MRSA 562 [1]
  ED50 (mg/kg body weight) PO: >25 mg/kg body weight
MRSA 562 [2]
  MIC: 2 µg/mL (≈ 4.35 µM)

## CC(=O)NC[C@H]1CN(c2ccc(N3CCN(C(=O)c4ccc(Br)o4)CC3)c(F)c2)C(=O)O1 [Compound No. 04]
MRSA 562 [1]
  ED50 (mg/kg body weight) PO: >25 mg/kg body weight
VRE 6A (Ent. faecium 6A)
  MIC VRE 6A: 1 µg/mL (≈ 1.96 µM)
MRSA 15187
  MIC MRSA 15187: 2 µg/mL (≈ 3.93 µM)
Ent. faecalis ATCC 29212
  MIC E. faecalis 29212: 2 µg/mL (≈ 3.93 µM)
MRSA 33
  MIC MRSA 33: 2 µg/mL (≈ 3.93 µM)
Strep. pyog. ATCC 19615
  MIC S. pyogenes 19615: 2 µg/mL (≈ 3.93 µM)
S. aureus ATCC 25923
  MIC S. aureus 25923: 2 µg/mL (≈ 3.93 µM)
Strep. pne. ATCC 6303
  MIC S. pneum 6303: 1 µg/mL (≈ 1.96 µM)
S. pneum AB 34
  MIC S. pneum AB 34: 1 µg/mL (≈ 1.96 µM)

## CC(=O)NC[C@H]1CN(c2ccc(N3CCN(C(=O)C(=O)c4cccs4)CC3)c(F)c2)C(=O)O1 [Compound No. 07, (S)-N[[3-[3-Fluoro-4-[N-1[4-{2-(2-thienyl)dicarbonyl}]piperazinyl]phenyl]2-oxo-5-oxazolidinyl]methyl]acetamide]
MRSA 562 [1]
  ED50 (mg/kg body weight) PO: >25 mg/kg body weight
VRE 6A (Ent. faecium 6A)
  MIC VRE 6A: 2 µg/mL (≈ 4.21 µM)
MRSA 15187
  MIC MRSA 15187: 2 µg/mL (≈ 4.21 µM)
Ent. faecalis ATCC 29212
  MIC E. faecalis 29212: 2 µg/mL (≈ 4.21 µM)
MRSA 562 [2]
  MIC: 2 µg/mL (≈ 4.21 µM)
  MIC MRSA 562: 2 µg/mL (≈ 4.21 µM)
MRSA 33
  MIC MRSA 33: 2 µg/mL (≈ 4.21 µM)
Strep. pyog. ATCC 19615
  MIC S. pyogenes 19615: 0.5 µg/mL (≈ 1.05 µM)
S. aureus ATCC 25923
  MIC S. aureus 25923: 2 µg/mL (≈ 4.21 µM)
Strep. pne. ATCC 6303
  MIC S. pneum 6303: 2 µg/mL (≈ 4.21 µM)
S. pneum AB 34
  MIC S. pneum AB 34: 2 µg/mL (≈ 4.21 µM)

## CC(=O)NC[C@H]1CN(c2ccc(N3CCC(N(C)Cc4ccc([N+](=O)[O-])o4)CC3)c(F)c2)C(=O)O1 [Compound No. 50, (S)-N-[[3-[4-[4-(N-methyl-N-2-furyl(5-nitro)methyl)aminopiperidine-1-yl]-3-fluorophenyl]-2-oxo-oxazolidin-5-yl]methyl]acetamide]
VRE 6A (Ent. faecium 6A)
  MIC VRE 6A: 0.25 µg/mL (≈ 0.511 µM)
E. faecalis
  Geometric Mean of in vitro activity (MIC): 0.42 µg/mL
E. faecalis; Number 7
  MIC50: 0.5 µg/mL (≈ 1.02 µM)
  MIC90: 1 µg/mL (≈ 2.04 µM)
S. aureus
  Geometric Mean of in vitro activity (MIC): 1 µg/mL
S. aureus; Number 8
  MIC50: 1 µg/mL (≈ 2.04 µM)
  MIC90: 2 µg/mL (≈ 4.09 µM)
G +ve bacteria; G +ve, Number 49
  MIC50: 1 µg/mL (≈ 2.04 µM)
  MIC90: 2 µg/mL (≈ 4.09 µM)
G +ve bacteria; Gram + ve
  Geometric Mean of in vitro activity (MIC): 0.72 µg/mL
MRSA 15187
  MIC MRSA 15187: 1 µg/mL (≈ 2.04 µM)
Ent. faecalis ATCC 29212
  MIC E. faecalis 29212: 0.5 µg/mL (≈ 1.02 µM)
MRSA 562 [2]
  MIC: 0.5 µg/mL (≈ 1.02 µM)
  MIC MRSA 562: 0.5 µg/mL (≈ 1.02 µM)
MRSA 33
  MIC MRSA 33: 1 µg/mL (≈ 2.04 µM)
Strep. pyog. ATCC 19615
  MIC S. pyogenes 19615: 0.125 µg/mL (≈ 0.255 µM)
S. aureus ATCC 25923
  MIC S. aureus 25923: 1 µg/mL (≈ 2.04 µM)
Strep. pne. ATCC 6303
  MIC S. pneum 6303: 0.5 µg/mL (≈ 1.02 µM)
S. pneum AB 34
  MIC S. pneum AB 34: 2 µg/mL (≈ 4.09 µM)
S. pneumoniae
  Geometric Mean of in vitro activity (MIC): 1.41 µg/mL
S. pneumoniae; Number 19
  MIC50: 1 µg/mL (≈ 2.04 µM)
  MIC90: 2 µg/mL (≈ 4.09 µM)
